From paper PMC6576746, “Rational discovery of dual-indication multi-target PDE/Kinase inhibitor for precision anti-cancer therapy using structural systems pharmacology” (PLoS Computational Biology, 2019)

How the values were obtained:
Assay in all cases: biochemical
Set-up in all cases: DiscoverX KinomeScan competition binding assay across human kinases; per cent of control at 10 and 100 uM
MLK3 = biological target: T1, MLK3 (Homo sapiens, UniProt Q16584); settings: competition binding, % of control; read-out: Percent Control (100 uM Levosimendan)
T1 construct: gene MAP3K11
Method in brief: (§1)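 Binding is expressed as %control, normalised between positive and negative control signals. The compound (levosimendan) was tested at 10 μM and 100 μM in the DiscoverX KinomeScan competition binding format against human kinases.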

CDKL2 = CDKL2 (Homo sapiens, UniProt Q92772); settings: competition binding, % of control; read-out: Percent Control (100 uM Levosimendan)
Method in brief: as §1

JNK1 = biological target: T2, JNK1 (Homo sapiens, UniProt P45983); settings: competition binding, % of control; read-out: Percent Control (100 uM Levosimendan)
T2 construct: gene MAPK8
Method in brief: as §1

p38-delta = biological target: T3, p38-delta (Homo sapiens, UniProt O15264); settings: competition binding, % of control; read-out: Percent Control (100 uM Levosimendan)
T3 construct: gene MAPK13
T3 sequence (O15264 whole entry): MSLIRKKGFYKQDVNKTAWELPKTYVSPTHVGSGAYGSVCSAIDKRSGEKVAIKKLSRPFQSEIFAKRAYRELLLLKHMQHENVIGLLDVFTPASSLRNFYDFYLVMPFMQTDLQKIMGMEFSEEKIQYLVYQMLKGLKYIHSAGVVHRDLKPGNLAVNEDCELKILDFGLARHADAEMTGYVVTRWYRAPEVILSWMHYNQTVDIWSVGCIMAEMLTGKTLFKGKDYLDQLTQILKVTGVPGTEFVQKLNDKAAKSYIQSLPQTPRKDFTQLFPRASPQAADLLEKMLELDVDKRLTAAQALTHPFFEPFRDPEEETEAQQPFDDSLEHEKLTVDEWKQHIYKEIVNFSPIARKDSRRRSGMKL
Method in brief: as §1

MST1 = biological target: T4, MST1 (Homo sapiens, UniProt Q13043); settings: competition binding, % of control; read-out: Percent Control (100 uM Levosimendan)
T4 construct: gene STK4
Method in brief: as §1

TIE1 = TIE1 (Homo sapiens, UniProt P35590); settings: competition binding, % of control; read-out: Percent Control (100 uM Levosimendan)
Method in brief: as §1

PLK4 = PLK4 (Homo sapiens, UniProt O00444); settings: competition binding, % of control
PLK4, sequence (O00444 whole entry): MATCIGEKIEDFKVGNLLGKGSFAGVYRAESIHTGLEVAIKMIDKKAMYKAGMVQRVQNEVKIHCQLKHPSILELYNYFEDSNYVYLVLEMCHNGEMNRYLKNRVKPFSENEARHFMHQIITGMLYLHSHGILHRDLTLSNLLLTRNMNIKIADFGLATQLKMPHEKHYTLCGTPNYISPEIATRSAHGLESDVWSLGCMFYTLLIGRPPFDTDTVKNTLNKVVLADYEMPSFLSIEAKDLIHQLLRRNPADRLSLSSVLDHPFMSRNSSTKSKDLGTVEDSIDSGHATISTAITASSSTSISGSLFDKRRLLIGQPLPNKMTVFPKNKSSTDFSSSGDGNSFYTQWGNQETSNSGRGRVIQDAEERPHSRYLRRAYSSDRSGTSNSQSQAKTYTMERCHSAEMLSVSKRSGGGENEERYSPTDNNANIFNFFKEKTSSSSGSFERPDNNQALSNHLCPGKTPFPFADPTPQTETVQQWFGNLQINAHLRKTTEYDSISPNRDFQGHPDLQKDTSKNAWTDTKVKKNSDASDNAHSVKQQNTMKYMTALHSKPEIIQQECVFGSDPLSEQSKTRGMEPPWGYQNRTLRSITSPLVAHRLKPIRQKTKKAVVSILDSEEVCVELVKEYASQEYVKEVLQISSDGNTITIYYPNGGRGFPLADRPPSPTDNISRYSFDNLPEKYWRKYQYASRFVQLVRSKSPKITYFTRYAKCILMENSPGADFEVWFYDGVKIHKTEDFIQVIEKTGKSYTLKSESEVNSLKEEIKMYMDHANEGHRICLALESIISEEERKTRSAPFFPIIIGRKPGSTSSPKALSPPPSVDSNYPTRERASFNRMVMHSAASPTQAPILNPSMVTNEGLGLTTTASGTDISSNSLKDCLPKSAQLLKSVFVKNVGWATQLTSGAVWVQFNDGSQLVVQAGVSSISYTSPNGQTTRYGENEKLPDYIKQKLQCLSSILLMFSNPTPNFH
Method in brief: as §1

PKAC-beta = biological target: T5, PKAC-beta (Homo sapiens, UniProt P22694); settings: competition binding, % of control; read-out: Percent Control (100 uM Levosimendan)
T5 construct: gene PRKACB
Method in brief: as §1

EPHA6 = EPHA6 (Homo sapiens, UniProt Q9UF33); settings: competition binding, % of control; read-out: Percent Control (100 uM Levosimendan)
Method in brief: as §1

TRKC = biological target: T6, TRKC (Homo sapiens, UniProt Q16288); settings: competition binding, % of control; read-out: Percent Control (100 uM Levosimendan)
T6 construct: gene NTRK3
T6 sequence (Q16288 whole entry): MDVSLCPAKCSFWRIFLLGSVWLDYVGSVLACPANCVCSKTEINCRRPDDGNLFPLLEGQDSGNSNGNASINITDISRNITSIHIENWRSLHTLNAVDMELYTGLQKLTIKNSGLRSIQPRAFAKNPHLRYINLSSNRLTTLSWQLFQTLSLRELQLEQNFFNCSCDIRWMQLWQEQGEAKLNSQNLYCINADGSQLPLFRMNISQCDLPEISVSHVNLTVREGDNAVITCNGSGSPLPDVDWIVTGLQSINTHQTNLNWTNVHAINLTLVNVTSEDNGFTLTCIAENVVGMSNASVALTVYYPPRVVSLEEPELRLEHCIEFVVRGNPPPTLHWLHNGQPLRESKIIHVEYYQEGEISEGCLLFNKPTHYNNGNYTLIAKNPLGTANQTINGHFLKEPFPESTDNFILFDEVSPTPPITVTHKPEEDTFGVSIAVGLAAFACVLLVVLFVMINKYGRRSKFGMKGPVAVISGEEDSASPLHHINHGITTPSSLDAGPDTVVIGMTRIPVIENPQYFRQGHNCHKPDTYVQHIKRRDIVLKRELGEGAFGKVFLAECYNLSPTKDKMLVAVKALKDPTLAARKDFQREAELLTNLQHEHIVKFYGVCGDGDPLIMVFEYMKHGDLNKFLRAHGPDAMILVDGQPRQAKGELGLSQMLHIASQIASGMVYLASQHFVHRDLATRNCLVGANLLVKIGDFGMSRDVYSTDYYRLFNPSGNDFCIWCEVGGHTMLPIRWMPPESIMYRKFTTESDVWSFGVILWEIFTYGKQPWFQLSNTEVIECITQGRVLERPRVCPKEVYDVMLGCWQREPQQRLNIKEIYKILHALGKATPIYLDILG
Method in brief: as §1

RIPK2 = RIPK2 (Homo sapiens, UniProt O43353); settings: competition binding, % of control; read-out: Percent Control (100 uM Levosimendan)
Method in brief: as §1

CDK11 = biological target: T7, CDK11 (Homo sapiens, UniProt Q9BWU1); settings: competition binding, % of control; read-out: Percent Control (100 uM Levosimendan)
T7 construct: gene CDK19
Method in brief: as §1

CDK3 = CDK3 (Homo sapiens, UniProt Q00526); settings: competition binding, % of control; read-out: Percent Control (100 uM Levosimendan)
Method in brief: as §1

AKT1 = AKT1 (Homo sapiens, UniProt P31749); settings: competition binding, % of control; read-out: Percent Control (100 uM Levosimendan)
Method in brief: as §1

BUB1 = BUB1 (Homo sapiens, UniProt O43683); settings: competition binding, % of control
BUB1, sequence (O43683 whole entry): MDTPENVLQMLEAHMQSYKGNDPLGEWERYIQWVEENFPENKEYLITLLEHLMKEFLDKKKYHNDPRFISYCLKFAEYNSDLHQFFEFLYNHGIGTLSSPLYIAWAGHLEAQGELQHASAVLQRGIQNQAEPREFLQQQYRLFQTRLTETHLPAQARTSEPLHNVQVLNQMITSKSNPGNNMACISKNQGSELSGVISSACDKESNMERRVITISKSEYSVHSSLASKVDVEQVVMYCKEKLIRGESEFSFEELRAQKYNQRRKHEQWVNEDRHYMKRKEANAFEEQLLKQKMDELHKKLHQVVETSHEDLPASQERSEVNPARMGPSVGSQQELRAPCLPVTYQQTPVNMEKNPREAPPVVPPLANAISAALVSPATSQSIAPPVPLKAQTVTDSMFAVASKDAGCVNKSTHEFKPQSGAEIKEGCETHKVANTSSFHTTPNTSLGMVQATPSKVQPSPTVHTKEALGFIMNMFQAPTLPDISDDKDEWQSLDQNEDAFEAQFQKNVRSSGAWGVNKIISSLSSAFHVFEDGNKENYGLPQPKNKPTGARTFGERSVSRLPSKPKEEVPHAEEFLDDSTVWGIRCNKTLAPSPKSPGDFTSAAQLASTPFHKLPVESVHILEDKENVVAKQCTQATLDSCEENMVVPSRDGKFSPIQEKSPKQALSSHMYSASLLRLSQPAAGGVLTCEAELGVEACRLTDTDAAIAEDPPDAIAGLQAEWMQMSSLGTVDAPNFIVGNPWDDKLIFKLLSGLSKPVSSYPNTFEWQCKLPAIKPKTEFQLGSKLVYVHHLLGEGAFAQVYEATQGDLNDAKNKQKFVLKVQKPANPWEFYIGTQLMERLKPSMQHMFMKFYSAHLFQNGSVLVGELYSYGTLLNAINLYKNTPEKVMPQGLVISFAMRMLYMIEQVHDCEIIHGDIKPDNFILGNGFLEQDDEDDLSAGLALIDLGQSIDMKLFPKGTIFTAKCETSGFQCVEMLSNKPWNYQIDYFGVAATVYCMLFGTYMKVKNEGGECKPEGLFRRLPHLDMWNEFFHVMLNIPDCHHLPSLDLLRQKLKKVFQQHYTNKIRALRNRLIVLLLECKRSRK
Method in brief: as §1

CHEK1 = CHEK1 (Homo sapiens, UniProt O14757); settings: competition binding, % of control; read-out: Percent Control (100 uM Levosimendan)
Method in brief: as §1

MEK1 = biological target: T8, MEK1 (Homo sapiens, UniProt Q02750); settings: competition binding, % of control; read-out: Percent Control (100 uM Levosimendan)
T8 construct: gene MAP2K1
Method in brief: as §1

[1] = biological target: T9, TYK2(JH2domain-pseudokinase) (Homo sapiens, UniProt P29597); settings: competition binding, % of control
T9 construct: JH2domain-pseudokinase
T9 sequence (P29597 whole entry): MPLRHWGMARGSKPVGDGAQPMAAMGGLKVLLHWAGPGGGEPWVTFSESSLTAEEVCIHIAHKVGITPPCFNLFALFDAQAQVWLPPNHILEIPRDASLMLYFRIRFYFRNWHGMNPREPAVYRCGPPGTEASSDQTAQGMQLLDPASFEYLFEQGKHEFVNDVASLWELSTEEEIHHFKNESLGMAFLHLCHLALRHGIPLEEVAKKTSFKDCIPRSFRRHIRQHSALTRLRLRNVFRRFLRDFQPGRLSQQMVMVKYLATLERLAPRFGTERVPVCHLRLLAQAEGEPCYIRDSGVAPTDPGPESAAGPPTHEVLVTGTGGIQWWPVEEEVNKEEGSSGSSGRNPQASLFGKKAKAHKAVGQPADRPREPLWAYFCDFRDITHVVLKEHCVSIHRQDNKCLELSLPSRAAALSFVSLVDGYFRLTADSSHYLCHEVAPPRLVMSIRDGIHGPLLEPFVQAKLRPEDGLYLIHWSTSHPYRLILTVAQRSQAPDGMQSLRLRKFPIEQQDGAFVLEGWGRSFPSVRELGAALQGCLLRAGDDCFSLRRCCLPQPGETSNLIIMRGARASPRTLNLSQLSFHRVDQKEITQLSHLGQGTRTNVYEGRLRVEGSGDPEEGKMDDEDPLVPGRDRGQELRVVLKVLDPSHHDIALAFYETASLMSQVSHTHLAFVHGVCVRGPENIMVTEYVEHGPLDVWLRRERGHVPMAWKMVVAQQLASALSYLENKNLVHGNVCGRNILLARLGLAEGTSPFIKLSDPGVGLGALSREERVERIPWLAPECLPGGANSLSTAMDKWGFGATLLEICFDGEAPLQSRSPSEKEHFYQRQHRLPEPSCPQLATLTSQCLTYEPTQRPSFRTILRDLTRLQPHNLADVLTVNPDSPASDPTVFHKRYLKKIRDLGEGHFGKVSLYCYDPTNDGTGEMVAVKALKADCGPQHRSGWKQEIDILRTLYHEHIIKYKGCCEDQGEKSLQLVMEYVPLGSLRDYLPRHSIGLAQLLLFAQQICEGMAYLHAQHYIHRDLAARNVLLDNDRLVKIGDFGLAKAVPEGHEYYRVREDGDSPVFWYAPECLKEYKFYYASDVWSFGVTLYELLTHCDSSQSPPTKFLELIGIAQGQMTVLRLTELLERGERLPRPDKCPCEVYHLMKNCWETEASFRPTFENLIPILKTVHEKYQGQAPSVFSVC
Method in brief: as §1

YES = biological target: T10, YES (Homo sapiens, UniProt P07947); settings: competition binding, % of control
T10 construct: gene YES1
T10 sequence (P07947 whole entry): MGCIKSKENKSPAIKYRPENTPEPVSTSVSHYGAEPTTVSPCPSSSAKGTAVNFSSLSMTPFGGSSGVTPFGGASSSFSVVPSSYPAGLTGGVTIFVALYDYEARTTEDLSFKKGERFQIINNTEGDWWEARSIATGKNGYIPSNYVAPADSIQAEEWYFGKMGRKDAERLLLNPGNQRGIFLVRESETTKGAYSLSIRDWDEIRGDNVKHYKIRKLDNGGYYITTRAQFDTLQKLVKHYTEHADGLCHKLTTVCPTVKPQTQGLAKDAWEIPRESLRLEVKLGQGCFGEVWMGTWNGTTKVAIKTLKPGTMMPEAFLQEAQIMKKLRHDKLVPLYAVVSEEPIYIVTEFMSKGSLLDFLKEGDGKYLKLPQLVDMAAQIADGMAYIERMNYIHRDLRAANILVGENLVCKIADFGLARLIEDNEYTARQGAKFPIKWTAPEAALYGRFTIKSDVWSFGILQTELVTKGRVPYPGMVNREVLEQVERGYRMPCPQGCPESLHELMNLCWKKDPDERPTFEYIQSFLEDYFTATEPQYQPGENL
Method in brief: as §1

[2] = read-out: Percent Control (10 uM Levosimendan)
[3] = read-out: Percent Control (100 uM Levosimendan)

## C[C@@H]1CC(=O)NN=C1c1ccc(NN=C(C#N)C#N)cc1 [levosimendan]
MLK3
  remaining binding at 100 µM: 73%
CDKL2
  remaining binding at 100 µM: 100%
JNK1
  remaining binding at 100 µM: 71%
p38-delta
  remaining binding at 100 µM: 100%
MST1
  remaining binding at 100 µM: 75%
TIE1
  remaining binding at 100 µM: 100%
PLK4; [2]
  remaining binding at 10 µM: 100%
PLK4; [3]
  remaining binding at 100 µM: 45%
PKAC-beta
  remaining binding at 100 µM: 64%
EPHA6
  remaining binding at 100 µM: 98%
TRKC
  remaining binding at 100 µM: 65%
RIPK2
  remaining binding at 100 µM: 91%
CDK11
  remaining binding at 100 µM: 100%
CDK3
  remaining binding at 100 µM: 100%
AKT1
  remaining binding at 100 µM: 56%
BUB1; [2]
  remaining binding at 10 µM: 94%
BUB1; [3]
  remaining binding at 100 µM: 53%
CHEK1
  remaining binding at 100 µM: 85%
MEK1
  remaining binding at 100 µM: 85%
[1]; [2]
  remaining binding at 10 µM: 100%
[1]; [3]
  remaining binding at 100 µM: 11%
YES; [2]
  remaining binding at 10 µM: 97%
YES; [3]
  remaining binding at 100 µM: 0%
